What all share (type): functional, organism-based
In test [1] the test system is Plasmodium falciparum. Nature of the test: Antimalarial activity against Plasmodium falciparum 3D7 assessed as parasitic growth inhibition.
The subject of test [2] is Plasmodium falciparum. Nature of the test: Antimalarial activity against Chloroquine resistant Plasmodium falciparum W2 assessed as parasitic growth inhibition measured after 48 hrs by fluorescence based assay. Particulars: W2, 48 h.
The test system of test [3] is Plasmodium falciparum. Nature of the test: Antimalarial activity against Plasmodium falciparum K1 assessed as parasitic growth inhibition.
Test [4] relates to Plasmodium falciparum. Nature of the test: Antimalarial activity against Plasmodium falciparum Dd2 assessed as parasitic growth inhibition.
The test system of test [5] is Plasmodium falciparum. Nature of the test: Antimalarial activity against Chloroquine sensitive Plasmodium falciparum D6 assessed as parasitic growth inhibition.
For test [6], the system named is Plasmodium falciparum. Nature of the test: Antimalarial activity against Chloroquine resistant Plasmodium falciparum W2 assessed as parasitic growth inhibition.

Values after ≈ are worked out from the molar mass of the structure shown.

As for `CN(C)c1nc(N)nc(NCCNc2ccnc3cc(Cl)ccc23)n1`, the IC50 (commonly the concentration needed to halve the response being measured) in test [1] was determined as 46.3 µg/mL (≈ 129 µM).
Turning to `O=C1c2ccc(N3CCOCC3)cc2C(=O)N1CCCCNc1ccnc2cc(Cl)ccc12`, the IC50 in test [2] was 49 nM.
Take `C[C@H]1[C@H](OC(=O)CCC(=O)OCCNc2ccnc3cc(Cl)ccc23)O[C@@H]2O[C@]3(C)CC[C@H]4[C@H](C)CC[C@@H]1[C@@]24OO3`: the EC50 (usually the concentration giving half of the maximal effect) in test [3] was 1.7 nM; in test [4], 2.3 nM; in test [1] it was 4.5 nM.
With `Cc1cc(NCCCCCCNc2ccnc3cc(Cl)ccc23)nc(Nc2ccc(C(=O)N3CCCC3)cc2)n1`, the IC50 was 32 nM in test [5] and 33 nM in test [6].
In the case of `O=C1c2ccc(N3CCCCC3)cc2C(=O)N1CCCCNc1ccnc2cc(Cl)ccc12`, the IC50 in test [2] was 77 nM.
As for `Cc1cc(NCCNc2ccnc3cc(Cl)ccc23)nc(Nc2ccc(C(=O)N3CCCC3)cc2)n1`, the values for the IC50 in test [5] and in test [6] were 32 nM and 33 nM, respectively.
Taken in the same sequence, the figures for `Cc1cc(NCCCCNc2ccnc3cc(Cl)ccc23)nc(Nc2ccc(C(=O)N3CCCC3)cc2)n1` were 32 nM and 33 nM.
Turning to `O=C1c2cccc(N3CCCCC3)c2C(=O)N1CCCCNc1ccnc2cc(Cl)ccc12`, the IC50 in test [2] was 51 nM.
On to `O=C(c1ccc(Nc2nccc(NCCCCNc3ccnc4cc(Cl)ccc34)n2)cc1)N1CCCCC1`, for which the IC50 was 32 nM in test [5] and 33 nM in test [6].
The like results for `Cc1cc(Nc2ccc(C(=O)N3CCSCC3)cc2)nc(NCCCCNc2ccnc3cc(Cl)ccc23)n1` were, in that order, 32 nM and 33 nM.
The like results for `Cc1cc(NCCCNc2ccnc3cc(Cl)ccc23)nc(Nc2ccc(C(=O)N3CCSCC3)cc2)n1` were, in that order, 32 nM and 33 nM.
Regarding `Cc1cc(NCCNc2ccnc3cc(Cl)ccc23)nc(Nc2ccc(C(=O)N3CCOCC3)cc2)n1`, the IC50 in test [5] was found to be 32 nM; in test [6], 33 nM.
`C[C@H]1[C@H](OC(=O)CCC(=O)OCCc2cn(-c3ccnc4cc(Cl)ccc34)nn2)O[C@@H]2O[C@]3(C)CC[C@H]4[C@H](C)CC[C@@H]1[C@@]24OO3`: the EC50 was 2.6 nM in test [3], 4.9 nM in test [4] and 8 nM in test [1].
`Cc1cc(Nc2ccc(C(=O)N3CCOCC3)cc2)nc(NCCCNc2ccnc3cc(Cl)ccc23)n1`: the IC50 in test [5] was found to be 32 nM; in test [6], 33 nM.
Turning to `C[C@H]1[C@@H](OCCc2cn(-c3cccc4cc(Cl)ccc34)nn2)O[C@@H]2O[C@]3(C)CC[C@H]4[C@H](C)CC[C@@H]1[C@@]24OO3`, the EC50 was 2 nM in test [3], 4.5 nM in test [4] and 8.8 nM in test [1].
As to `C[C@H]1[C@@H](OCCCCc2cn(-c3cccc4cc(Cl)ccc34)nn2)O[C@@H]2O[C@]3(C)CC[C@H]4[C@H](C)CC[C@@H]1[C@@]24OO3`, the EC50 turned out to be 3.7 nM in test [3], 6.1 nM in test [4] and 8.4 nM in test [1].
As for `Cc1cc(NCCNc2ccnc3cc(Cl)ccc23)nc(Nc2ccc(C(=O)N3CCSCC3)cc2)n1`, the IC50 in test [5] came out at 32 nM; in test [6] it was 33 nM.
Turning to `Cc1cc(Nc2ccc(C(=O)N3CCCC3)cc2)nc(NCCCNc2ccnc3cc(Cl)ccc23)n1`, the figures for the IC50 in test [5] and in test [6] were 32 nM and 33 nM, respectively.
Regarding `O=C1c2ccc(N3CCN(CCO)CC3)cc2C(=O)N1CCCCCCNc1ccnc2cc(Cl)ccc12`, the 50% inhibitory concentration (IC50) in test [2] was 15 nM.
Turning to `Cc1cc(NCCCNc2ccnc3cc(Cl)ccc23)nc(Nc2ccc(C(=O)N3CCCC3)cc2)n1`, the IC50 in test [5] is 32 nM; in test [6] it was 33 nM.
Turning to `O=C1c2cccc(N3CCCCC3)c2C(=O)N1CCCCCCNc1ccnc2cc(Cl)ccc12`, in test [2], the IC50 is 75 nM.
On to `Cc1cc(NCCCNc2ccnc3cc(Cl)ccc23)nc(Nc2ccc(C(=O)N3CCCCC3)cc2)n1`, for which the IC50 in test [5] is 32 nM; in test [6], 33 nM.
`CCCCc1nc(C)c2ccc(-c3cn(CCOC(=O)CCC(=O)O[C@@H]4O[C@@H]5O[C@]6(C)CC[C@H]7[C@H](C)CC[C@@H]([C@H]4C)[C@@]57OO6)nn3)cc2c1CCCC`: the results for the EC50 in test [3], in test [4] and in test [1] were 4.2 nM, 10 nM and 9.2 nM, respectively.
For the compound `O=C(c1ccc(Nc2nccc(NCCCNc3ccnc4cc(Cl)ccc34)n2)cc1)N1CCOCC1`, the IC50 in test [5] is 32 nM; in test [6], 33 nM.
Turning to `C[C@H]1[C@@H](OCc2cn(-c3cccc4cc(Cl)ccc34)nn2)O[C@@H]2O[C@]3(C)CC[C@H]4[C@H](C)CC[C@@H]1[C@@]24OO3`, the EC50 in test [3] came to 4.3 nM; in test [4] it was 5.9 nM; in test [1], 9 nM.
On to `O=C(c1ccc(Nc2nccc(NCCCCNc3ccnc4cc(Cl)ccc34)n2)cc1)N1CCSCC1`, for which the IC50 came to 32 nM in test [5] and 33 nM in test [6].
`C[C@H]1[C@H](OC(=O)CCC(=O)OCc2cn(-c3ccnc4cc(Cl)ccc34)nn2)O[C@@H]2O[C@]3(C)CC[C@H]4[C@H](C)CC[C@@H]1[C@@]24OO3` (racemic): the EC50 in test [3] was found to be 1.8 nM; in test [4], 4.2 nM; in test [1] it was 5.3 nM.
As to `Cc1cc(Nc2ccc(C(=O)N3CCOCC3)cc2)nc(NCCCCNc2ccnc3cc(Cl)ccc23)n1`, the figures for the IC50 in test [5] and in test [6] were 32 nM and 33 nM, respectively.
In the case of `O=C(c1ccc(Nc2nccc(NCCCNc3ccnc4cc(Cl)ccc34)n2)cc1)N1CCCC1`, the IC50 in test [5] turned out to be 32 nM; in test [6], 33 nM.
The like results for `Cc1cc(NCCCNc2ccnc3cc(Cl)ccc23)nc(Nc2ccc(C(=O)N3CCOCC3)cc2)n1` were, in that order, 32 nM and 33 nM.
Taken in the same sequence, the figures for `O=C(c1ccc(Nc2nccc(NCCCCNc3ccnc4cc(Cl)ccc34)n2)cc1)N1CCOCC1` were 32 nM and 33 nM.
The like results for `Cc1cc(NCCCCCCNc2ccnc3cc(Cl)ccc23)nc(Nc2ccc(C(=O)N3CCCCC3)cc2)n1` were, in that order, 32 nM and 33 nM.
In the case of `O=C(c1ccc(Nc2nccc(NCCCNc3ccnc4cc(Cl)ccc34)n2)cc1)N1CCCCC1`, the IC50 came to 32 nM in test [5] and 33 nM in test [6].
For the compound `Cc1cc(NCCCCNc2ccnc3cc(Cl)ccc23)nc(Nc2ccc(C(=O)N3CCSCC3)cc2)n1`, the IC50 in test [5] was 32 nM; in test [6], 33 nM.
`Cc1cc(NCCNc2ccnc3cc(Cl)ccc23)nc(Nc2ccc(C(=O)N3CCCCC3)cc2)n1`: the IC50 in test [5] was 32 nM; in test [6], 33 nM.
Taken in the same sequence, the figures for `Cc1cc(NCCCCCCNc2ccnc3cc(Cl)ccc23)nc(Nc2ccc(C(=O)N3CCOCC3)cc2)n1` were 32 nM and 33 nM.
`C[C@H]1[C@H](OC(=O)CCC(=O)NCCNc2ccnc3cc(Cl)ccc23)O[C@@H]2O[C@]3(C)CC[C@H]4[C@H](C)CC[C@@H]1[C@@]24OO3`: the EC50 was found to be 0.78 nM in test [3], 1 nM in test [4] and 2.7 nM in test [1].
`Cc1cc(Nc2ccc(C(=O)N3CCSCC3)cc2)nc(NCCCNc2ccnc3cc(Cl)ccc23)n1`: the IC50 in test [5] came out at 32 nM; in test [6] it was 33 nM.
Turning to `Cc1cc(NCCCCCCNc2ccnc3cc(Cl)ccc23)nc(Nc2ccc(C(=O)N3CCSCC3)cc2)n1`, the IC50 in test [5] was 32 nM; in test [6], 33 nM.
Consider `C#CCCCC(C(=O)NCCOC(=O)CCC(=O)O[C@@H]1O[C@@H]2O[C@]3(C)CC[C@H]4[C@H](C)CC[C@@H]([C@H]1C)[C@@]24OO3)c1ccnc2cc(Cl)ccc12` (stereo not given in full), for which the EC50 in test [3] was 2.2 nM; in test [4], 4.8 nM; in test [1], 6 nM.
With `C[C@H]1[C@H](OC(=O)CCC(=O)OCCCCc2cn(-c3ccnc4cc(Cl)ccc34)nn2)O[C@@H]2O[C@]3(C)CC[C@H]4[C@H](C)CC[C@@H]1[C@@]24OO3`, the EC50 in test [3] turned out to be 2.5 nM; in test [4] it was 4.4 nM; in test [1] it was 6.2 nM.
On to `C[C@H]1[C@@H](OCCCc2cn(-c3cccc4cc(Cl)ccc34)nn2)O[C@@H]2O[C@]3(C)CC[C@H]4[C@H](C)CC[C@@H]1[C@@]24OO3`, for which the EC50 in test [3] came out at 3.8 nM; in test [4] it was 5.1 nM; in test [1], 9.4 nM.
On to `C#CCCCN(CCNc1ccnc2cc(Cl)ccc12)C(=O)CCC(=O)O[C@@H]1O[C@@H]2O[C@]3(C)CC[C@H]4[C@H](C)CC[C@@H]([C@H]1C)[C@@]24OO3`, for which the EC50 in test [3] amounted to 1.3 nM; in test [4], 1.6 nM; in test [1] it was 3.5 nM.
Regarding `Cc1cc(Nc2ccc(C(=O)N3CCCC3)cc2)nc(NCCCCNc2ccnc3cc(Cl)ccc23)n1`, the IC50 was 32 nM in test [5] and 33 nM in test [6].
The like results for `Cc1cc(Nc2ccc(C(=O)N3CCCCC3)cc2)nc(NCCCCNc2ccnc3cc(Cl)ccc23)n1` were, in that order, 32 nM and 33 nM.
Take `O=C(c1ccc(Nc2nccc(NCCCNc3ccnc4cc(Cl)ccc34)n2)cc1)N1CCSCC1`: the figures for the IC50 in test [5] and in test [6] were 32 nM and 33 nM, respectively.
For the compound `C[C@H]1[C@H](OC(=O)CCC(=O)OCCCc2cn(-c3ccnc4cc(Cl)ccc34)nn2)O[C@@H]2O[C@]3(C)CC[C@H]4[C@H](C)CC[C@@H]1[C@@]24OO3`, the EC50 worked out at 2.4 nM in test [3], 4.6 nM in test [4] and 5.4 nM in test [1].
`Cc1cc(Nc2ccc(C(=O)N3CCCCC3)cc2)nc(NCCCNc2ccnc3cc(Cl)ccc23)n1`: the IC50 in test [5] was found to be 32 nM; in test [6], 33 nM.
Turning to `Cc1nc(-c2ccccc2)c(-c2ccccc2)c2cc(-c3cn(CCOC(=O)CCC(=O)O[C@@H]4O[C@@H]5O[C@]6(C)CC[C@H]7[C@H](C)CC[C@@H]([C@H]4C)[C@@]57OO6)nn3)ccc12`, the EC50 in test [3] came out at 3.3 nM; in test [4] it was 4.8 nM; in test [1], 5.3 nM.
As to `Cc1cc(NCCCCNc2ccnc3cc(Cl)ccc23)nc(Nc2ccc(C(=O)N3CCCCC3)cc2)n1`, the IC50 in test [5] was 32 nM; in test [6], 33 nM.
The like results for `O=C(c1ccc(Nc2nccc(NCCCCNc3ccnc4cc(Cl)ccc34)n2)cc1)N1CCCC1` were, in that order, 32 nM and 33 nM.

For the origin of these results see ChEMBL document CHEMBL5329153, “Is structural hybridization invoking new dimensions for antimalarial drug discovery research?” (RSC Med Chem, 2023).
